The results in this text go back to US20090074911A1, “Indicia-Bearing Package For Delivery Systems” (CADBURY ADAMS USA LLC, priority 2005, published 2009).

This data set in a line: Discoloration (degradation) of sucralose during encapsulation. It counts as physicochemical. Here is the method:
As one example of a hydrophilic coating, sucralose was mixed with powdered polyvinyl acetate and 5% fat and extruded at 110° C. […] In an alternative encapsulation, sucralose was mixed with powdered polyvinyl acetate, 2% polyvinylpyrollidone and 1% magnesium stearate and pressed into tablets at 25° C. The tablets were then heated to 80° C., which softened the polymer and fused the polyvinylacetate with the sucralose. […] Thereafter, the tablets were cooled, ground and sized and analyzed. […] As another example, a polymer/sweetener matrix was prepared as described above in this paragraph. A solution of gum arabic was made and coated on the polymer/sweetener matrix particles using the method described in U.S. Pat. No. 3,196,827, the relevant portions of which are incorporated herein by reference. Coating levels were 20, 30, 40, and 50% for different samples. Chewing gums prepared with the coated polymer/sweetener matrix particles were chewed by a panel with bolus collection at 5, 10, 15, 20 minutes. Residual sucralose was analyzed in each chewed bolus.

Consider `OC[C@H]1O[C@H](O[C@]2(CCl)O[C@H](CCl)[C@@H](O)[C@@H]2O)[C@H](O)[C@@H](O)[C@H]1Cl` [sucralose], for which the “discoloration indicating degradation of the sucralose” value (mixed with powdered polyvinyl acetate and 5% fat, extruded at 110° C.) was “Extensive discoloration”. The “discoloration of the sucralose” value (mixed with powdered polyvinyl acetate, 2% polyvinylpyrollidone, 1% magnesium stearate, pressed into tablets at 25° C., heated to 80° C.) was “No discoloration”; the “discoloration of the sucralose” value (same tablets after being cooled, ground, sized and analyzed) is “no discoloration”.
